The test system of series [1] is A375SM-Luc705-B cells. The series is described as follows: Confocal microscopy of live cells, albumin conjugates. It is filed as cell-based. As to conditions: 100 nM, 24 h. The protocol: Cellular Uptake and Confocal Microscopy: Cells were seeded onto either 12 well plates at 1×10^5 cells per well for cellular uptake measurements or in 12 well glass-bottom plates at 2×10^4 cells per well for live cell analysis by confocal microscopy. After treatment of cells with Tamra labeled oligonucleotide derivatives for 24 h, the cells were either lysed for measurement of Tamra fluorescence using a Nanodrop microfluorimeter (Nanodrop Technologies, Wilmington, Deleware, United States of America) or washed with DMEM containing 10% FBS and then placed in DMEM without phenol red, supplemented with 1% FBS, for confocal microscopy analysis. Co-localization of Tamra-labeled oligonucleotides with Alexa 488 labeled Transferrin or Dextran (Molecular Probes, Beaverton, Oreg., United States of America) in live cell was also examined by confocal microscopy. An Olympus confocal microscope with a 60× objective lens was used, and the data were processed using Fluoview software (Olympus, Center Valley, Pa., United States of America) as described in Example 1.

In series [2] the test system is A375SM-Luc705-B cells. The series is described as follows: Subcellular distribution and co-localization by confocal fluorescence microscopy (peptide conjugate). It is filed as cell-based. The settings on record: living cells; 200 nM, complex 100 nM. The source says: (§1) Cell Uptake, Confocal Fluorescence Microscopy, and Flow Cytometry: Total cellular uptake of Tamra-labeled oligonucleotides was monitored using a Nanodrop microfluorimeter (Nanodrop Technologies, Wilmington, Del., United States of America). After treatment with oligonucleotides the cells were lysed in a mild non-ionic detergent buffer and the Tamra fluorescence (emission 583 nm) was quantitated based on a linear standard curve of unconjugated Tamra in buffer. Intracellular distribution of Tamra-labeled oligonucleotides was examined using an Olympus Confocal FV300 fluorescent microscope (Olympus America Inc., Center Valley, Pa., United States of America) with 60X-oil immersion objective, as previously described. See Astriab-Fisher et al. (2004) Biochem. Pharmacol., 68, 403-407. Expression levels of αvβ3 were monitored by immunostaining with an anti-human-αvβ3 monoclonal (Chemicon, Temecula, Calif., United States of America) followed by an Alexa 488 rabbit antimouse secondary antibody, with analysis by flow cytometry using a DakoCytomation (Glostrop, Denmark) machine.

For series [3], the system named is A375SM-Luc705-B cells. The series is described as follows: Short-term toxicity, viable cell count after 48 h (peptide conjugate). It is filed as cell-based. The settings on record: concentrations up to 1000 nM, 48 h. The protocol:
Toxicity Studies: Cells were treated with various concentrations of oligonucleotides or conjugates under the same conditions as used for the luciferase induction experiments. After 48 h in medium plus 1% FBS, cells were trypsinized and viable cells were counted in an electronic particle counter.

Another series deals with Micrococcal nuclease (Staphylococcus aureus, UniProt P00644). The series is described as follows: Nuclease stability by polyacrylamide gel. It is filed as in vitro ADME. As to conditions: 0-12 h, 37° C. The protocol:
The reactions were then stopped by the addition of EDTA (50 mM), and the fluorescent samples were analyzed on 10% polyacrylamide gels and examined under long-wavelength ultraviolet illumination to detect possible nucleolytic cleavage of the Tamra-labeled oligonucleotides.

Another series has as its system αvβ3. Briefly: Cell surface αvβ3 level by immunostaining and flow cytometry. It is filed as cell-based, human. The settings on record: 200 nM, 24 h exposure. The protocol: Then, αvβ3 levels were determined by immunostaining with anti-αvβ3 antibody. […] The y axis of each panel indicates the number of cells, while the x axis indicates the log of fluorescence intensity.
as §1
In general terms: A flow cytometer gives signals particle by particle.

Entries after “also recorded” stand apart in the source; their conditions may differ.

Take “5′-GTTATTCTTTAGAATGGTGC-Tamra-3′ [623-Tamra]”: in the series on A375SM-Luc705-B cells [1], the “intracellular Tamra fluorescence” value was “less intracellular fluorescene” and the “nuclear accumulation of Tamra fluorescence” value is reported as “No Tamra fluorophore appeared to have accumulated in nuclei”. In addition, in the series on A375SM-Luc705-B cells [1] (listed as 623 Tamra), the “nuclear accumulation of Tamra fluorescence” value is “no evidence of nuclear accumulation”. For the same substance, the “cellular uptake seen by confocal microscopy” value with A375SM-Luc705-B cells [2] was “relatively little uptake was observed; also recorded: Very little fluorescence related to cellular uptake of Tamra was observed”. Moreover, the “short-term toxicity (viable cells)” value with A375SM-Luc705-B cells [3] is given as “little effect”. Moreover, the “stability to micrococcal nuclease” value at Micrococcal nuclease is on record as “gradual degradation”. In addition, the “level of surface αvβ3 expression” value in the series with αvβ3 was “no effect”.
